Data taken from ChEMBL document CHEMBL2380299, “Sungsanpin, a lasso peptide from a deep-sea streptomycete” (J Nat Prod, 2013).
Active and inactive are the calls of the source. The rule behind the calls is not given here. Where a SMILES comes first, the peptide text is derived from it. Bridges are numbered along the chain shown (N, C = ends).

Legend:
A549 [1] = assay: Antiinvasive activity against human A549 cells assessed as increase in TIMP-2 mRNA level after 24 hrs by RT-PCR analysis; format: functional, cell-based
A549 [2] = assay: Antiinvasive activity against human A549 cells at 50 uM after 24 hrs by micro plate reader analysis relative to control; format: functional
A549 [3] = assay: Antiinvasive activity against human A549 cells at 5 uM after 24 hrs by micro plate reader analysis relative to control; format: functional
A549 [4] = assay: Antiinvasive activity against human A549 cells assessed as MMP-2 mRNA level after 24 hrs by RT-PCR analysis; format: functional, cell-based
A549 [5] = assay: Antiinvasive activity against human A549 cells assessed as increase in TIMP-1 mRNA level after 24 hrs by RT-PCR analysis; format: functional, cell-based
A549 [6] = assay: Cytotoxicity against human A549 cells up to 50 uM after 24 hrs by CCK-8 assay; format: cell-based; conditions: a549, 24 h
A549 [7] = assay: Antiinvasive activity against human A549 cells assessed as MMP-9 mRNA level after 24 hrs by RT-PCR analysis; format: functional, cell-based

In the case of `CC[C@H](C)[C@@H]1NC(=O)[C@@H]2CCCN2C(=O)[C@H](CCCCN)NC(=O)[C@H](CO)NC(=O)CNC(=O)[C@H](Cc2ccccc2)NC(=O)CNC(=O)C[C@@H](C(=O)N[C@@H](CO)C(=O)N[C@@H](Cc2ccccc2)C(=O)NCC(=O)N[C@@H](CC(C)C)C(=O)N[C@@H](CO)C(=O)N[C@@H](Cc2c[nH]c3ccccc23)C(=O)N[C@@H](CC(C)C)C(=O)O)NC1=O` [SUNGSANPIN] (GFGSKPIDSFGLSWL-OH; lactam N-8), the Activity (A549 [1]) is reported as “Dose-dependent effect”, the Activity (A549 [2]) is reported as 47% and the Activity (A549 [3]) is reported as 25%. For the same compound, the Activity (A549 [4]) was “inactive”, the Activity (A549 [5]) was “Dose-dependent effect” and the Activity (A549 [6]) was “Non-toxic”. The Activity (A549 [7]) was “inactive”.
